The record followed here is patent US8735442B2, “Composition for alleviating ultraviolet radiation-induced damage” (priority 2009, dated 2014).

In test [1] the test system is human neonatal epidermal keratinocyte (Cryo NHEK-Neo). Nature of the test: UV-B irradiation-induced cell damage in keratinocytes, Alamar Blue (Example 1). In kind it is cell-based. The note with it: UV-B 75 mJ/cm^2; 0.1 to 100 μM, pretreatment or posttreatment; non-irradiated about 22,000, irradiated 5,000 to 7,000. As for the experimental part:
The cell employed was a commercially available human neonatal epidermal keratinocyte (Cryo NHEK-Neo, Sanko-Junyaku Co., Ltd.).
Thereafter, the culture medium was supplemented with Alamar Blue (trade mark, Biosource International Inc.) at a final concentration of 10%, and its supernatant was examined for the fluorescent intensity 3 hours later with an excitation wavelength of 544 nm and a fluorescent wavelength of 590 nm as described by Ahmed S. A. et al. (J. Immunol. Method. 170, 211-224 (1994)) and in accordance with the manufacture's instruction.

The subject of test [2] is human dermal fibroblast derived from a patient having xeroderma pigmentosum (Group A) (XP30S (SVT)). Briefly: UV-A irradiation-induced cell damage in XP cells, pretreatment, Alamar Blue (Example 5). The format is cell-based. Particulars: UV-A 1 J/cm^2; pretreatment 0.1 μM; non-UV irradiating condition about 690, negative control about 630. As for the experimental part: A human dermal fibroblast derived from a patient having xeroderma pigmentosum (Group […]), hereinafter referred to as “XP cell”) which was obtained from Japan Health Science Foundation was employed and cultured by the same method described in Example 3. […] The UV dose was measured using UV RADIOMETER […] Corporation).
In general terms: Alamar Blue is a resazurin reagent that responds to reducing activity.

The test system of test [3] is human neonatal dermal fibroblast (Cryo NHDF-Neo). Briefly: UV-A irradiation-induced cell damage in fibroblasts, pretreatment, Alamar Blue (Example 3). The note with it: UV-A 22.5 J/cm^2; for fluorescent intensity: control about 1,100.
Test [4] shares this test system. Particulars: for fluorescent intensity / alleviation of the cell damage: 0.1 μM; for fluorescent intensity: Mean ± SD, N = 4-6; for alleviation of the cell damage: UV-A 12.5 J/cm^2 and 15 J/cm^2. As for the experimental part:
The cell employed was a commercially available human neonatal dermal fibroblast (Cryo NHDF-Neo, Sanko-Junyaku Co., Ltd.). This cell was inoculated at 2×10^5 cells/mL to a commercially available culture dish of 35 mm in diameter (BD FALCON 353001, Beckton Dickinson Japan), where it was cultured in a commercially available cell culture medium (D-MEM (1 g/L glucose, Wako Pure Chemical Industries, Ltd.) supplemented with 10% fetal bovine serum (hereinafter referred to as “ordinary medium 2”). This cell was cultured for about 24 hours in a 5% CO2 and saturated water vapor atmosphere at 37° C.
Thereafter, the culture medium for culturing the cell described above was switched to 1 mL of a BSO medium containing a glutathione biosynthesis inhibitor BSO (L-buthionine-(S,R)-sulfoximine, Wako Pure Chemical Industries, Ltd.) at 1×10^−3%, where the culture was conducted for about 24 hours in a 5% CO2 and saturated water vapor atmosphere at 37° C. The BSO medium described above was prepared by a 200-fold dilution of a stock solution containing 0.2% BSO in ethyl alcohol with the ordinary medium 2 described above.
[…] was dissolved in a distilled water at 2×10^−3%, and the resultant solution was subjected to a 200-fold dilution (final concentration: 1×10^−5%) with a phosphate buffer solution PBS containing calcium ion and magnesium ion (PBS+) to obtain a medium (hereinafter referred to as “UV irradiation medium”), which was warmed preliminarily before use.
Before UV-A irradiation, the culture medium was replaced with 1 mL of the UV irradiation medium described above. […] The UV dose was measured using UV RADIOMETER UVR-3036/S (Topcon Corporation).
After UV irradiation, the cell was returned to the ordinary medium 2 described above where it was cultured in a 5% CO2 and saturated water vapor atmosphere at 37° C. for 21 hours. For examining the effect of adding proline after UV irradiation (hereinafter referred to as “posttreatment”), this 21-hour cultured medium was supplemented with 0.01 to 1000 μM L- or D-proline.
Thereafter, the fluorescent intensity was measured by a method described in Example 1.

Test [5] concerns human neonatal epidermal keratinocyte (Cryo NHEK-Neo). Nature of the test: UV-B irradiation-induced cell damage in keratinocytes, D-amino acids and cysteine, Alamar Blue (Example 4). In kind it is cell-based. The note with it: UV-B 25 mJ/cm^2; 100 μM before and after irradiation; without the amino acid about 500 to 600. The procedure:
The cell employed was a commercially available human neonatal epidermal keratinocyte (Cryo NHEK-Neo, Sanko-Junyaku Co., Ltd.). […] Thereafter, it was cultured for 2 days in 2 mL of the ordinary medium 3 containing 100 μM D-alanine, D-serine, D-hydroxyproline, D-aspartic acid, D-cysteine or L-cysteine. As a control, the ordinary medium 3 containing PBS instead of the D-amino acid was added to the ordinary medium 3.
Thereafter, the fluorescent intensity was measured by the method described in Example 1.

Where [6] appears, read: UV irradiation amount 0 J/cm^2, control 12380 ± 21.
The mark [7] stands for this setting: UV-A 12.5 J/cm^2, control 2503 ± 629.
Where [8] appears, read: UV-A 15 J/cm^2, control 1018 ± 89.

Structures are written as SMILES. Read-outs that look alike come from different tables or passages of the source.

Turning to `N[C@@H](CCC(=O)O)C(=O)O` [L-glutamic acid], in test [1], the “cell damage alleviating effect (fluorescent intensity of Alamar Blue)” value is listed as “No cell damage alleviating effect was observed”. The fluorescent intensity result in test [2] is “about 658”; in test [3] (pretreatment 1 μM), “about 1,100”. In test [3] (pretreatment 1 μM), the “cell damage alleviating effect” value is “no cell damage alleviating effect was observed”.

On to `O=C(O)[C@@H]1CCCN1` [L-proline, reference compound], for which the fluorescent intensity in test [4] (setting [6]) is 12211 ± 77; in test [4] (setting [7]), 2877 ± 834; in test [4] (setting [8]), 1552 ± 320; in test [2], “about 583”. The “alleviation of the cell damage” value in test [4] is “Almost no alleviation of the cell damage”. The “alleviating effect on ultraviolet irradiation-induced damage” value in test [4] (summary statement referring to the Examples) is given as “no alleviating effect on ultraviolet irradiation-induced damage”.

Regarding `O=C(O)[C@H]1C[C@H](O)CN1` [D-hydroxyproline], the “fluorescent intensity of Alamar Blue” value in test [5] is recorded as “about 550”.

`N[C@@H](CS)C(=O)O` [L-cysteine]: in test [2], the fluorescent intensity result is given as “about 688”. Also, the “fluorescent intensity of Alamar Blue” value in test [5] is on record as “about 700”.

For the compound `C[C@@H](N)C(=O)O` [D-alanine], the “fluorescent intensity of Alamar Blue” value in test [5] is on record as “about 570”.

For `N[C@H](CS)C(=O)O` [D-cysteine], in test [2], the fluorescent intensity entry is given as “about 638”. In test [5], the “fluorescent intensity of Alamar Blue” value was “about 700”.

As for `O=C(O)[C@H]1CCCN1` [D-proline], the fluorescent intensity is 12270 ± 68 ^ in test [4] (setting [6]); 4615 ± 1218 *^1 in test [4] (setting [7]); 2365 ± 648 *^2 in test [4] (setting [8]); “about 664” in test [2]; “about 1,750” in test [3] (pretreatment 0.1 μM). Moreover, in test [4], the “alleviation of the cell damage” value was “the cell damage was alleviated”. Moreover, the “cell damage alleviating effect (fluorescent intensity of Alamar Blue)” value in test [4] (UV-A 15 J/cm^2 and 22.5 J/cm^2, posttreatment, non-irradiated about 12,000, irradiated about 5,000 and about 3,000) is given as “the cell damage was alleviated”.

As to `N[C@H](CC(=O)O)C(=O)O` [D-aspartic acid], in test [5], the “fluorescent intensity of Alamar Blue” value was “about 600”.

On to `N[C@H](CCC(=O)O)C(=O)O` [D-glutamic acid], for which, in test [1], the “cell damage alleviating effect (fluorescent intensity of Alamar Blue)” value was “the cell damage was alleviated”. Further, the fluorescent intensity entry in test [2] is listed as “about 675”; in test [3] (pretreatment 1 μM) it was “about 1,700”.

Turning to `N[C@H](CO)C(=O)O` [D-serine], the “fluorescent intensity of Alamar Blue” value in test [5] is reported as “about 490”.
